Assay results taken from patent publication US20090181409A1, “Optical biosensor method for cell-cell interaction” (priority 2008, published 2009).

How the values were obtained:
RhoA = RhoA (Homo sapiens, UniProt P61586); details: cited from earlier work
D1 cells = test: NK92 cell-induced optical signal of D1 cells (Epic RWG biosensor), modulation by pharmacological agents; type: cell-based, mouse; details: D1 cells pretreated with agent for 1 hour before NK cells; killer:target ratio 1; 28° C.
Description: The impact of six pharmacological agents was examined on the NK92 cell-induced optical signal of D1 cells. […] Brefeldin A (BFA), and Camptothecin are defined above. Kp7-6 is an exocyclic cystine-knot peptide that specifically antagonizes Fas/FasL-mediated cellular apoptotic signals, for example, it can reduce 58% of FasL-induced apoptosis in Jurkat cells at 1 mg/mL. Latrunculin inhibits actin polymerization in vitro and disrupts microfilament organization as well as microfilament-mediated processes. […] Wortmannin is a potent, selective, cell-permeable and irreversible inhibitor of phosphatidylinositol 3-kinase.
Cell culture—Natural killer cells-NK92MI and the multipotent mouse bone marrow D1 cell line were from American Type Culture Collection (Manassas, Va.). NK92MI cells were grown in RPMI medium plus 12.5% horse serum and 12.5 fetal bovine serum (FBS) and antibiotics. D1 cells were grown in Dulbecco's Modified Eagle's Medium supplemented with 10% fetal bovine serum (FBS) and antibiotics. Approximately 1×10^4 to 2×10^4 target cells of D1 in 50 μL medium were placed in each well of Epic® 384-well microplate. After cell seeding, the cells were cultured at 37° C. under air/5% CO2 until a high degree, e.g., 90% of confluence was reached (about 24 hrs). Cells were continuously cultured overnight in their corresponding media without any serum to keep cells at a quiescent state and cell confluence was over about 95%.
Epic® system and DMR assays—Epic® beta system was used during this study. For cell-cell interaction study, target cell density was at about 95-100% confluence and the cells were finally maintained with the appropriate medium as described above. Cell number of NK92MI was counted with Beckman Coulter Particle Counter. Unless stated otherwise, a ratio of 1 between killer cells and target cells was used. NK92MI cells were suspended in RPMI plus 2% FBS. A 20 μL aliquot of NK92MI solution was added to each well of a normal 384-well microplate (Corning Inc., Corning, N.Y.). The plates of the target cells and the natural killer cells were incubated in the Epic® instrument for at least 30 minutes to reach 28° C. For pharmacological agent studies, the D1 cells were pretreated with the agents for 1 hour before NK cells were introduced. All studies were carried out at 28° C. for consistency and having the lid of the microplate continuously on except for a short period of time (e.g., about seconds) when the solution was introduced to minimize the effect of temperature fluctuation and evaporative cooling.

CHO-ICAM1 cells = test: NK92 cell-induced N-DMR signal of CHO-ICAM1 cells (Epic RWG biosensor), modulation by pharmacological agents; type: cell-based, Chinese hamster; details: CHO-ICAM1 cells pretreated with agent for 1 hour before NK cells; killer:target ratio 1; 28° C.
Text: The impacts of four pharmacological agents were examined on the NK92 cell-induced DMR signal of CHO-ICAM1 cells. FIG. 4 illustrate the modulation profile (response v. modulator concentration in microM) of the natural killer cell-induced DMR signal of the target cell layer by four different modulators at different doses:
Cell culture—Natural killer cells-NK92MI, both parental CHO-K1 and engineered CHO expressing ICAM1 receptor (CHO-ICAM1) were purchased from American Type Culture Collection (Manassas, Va.). NK92MI cells were grown in RPMI medium plus 12.5% horse serum and 12.5 fetal bovine serum (FBS) and antibiotics. CHO-K1 cells and CHO-ICAM1 cells were grown in RPMI supplemented with 10% fetal bovine serum (FBS) and antibiotics. Approximately 1-2×10^4 target cells of CHO-K1 or CHO-ICAM1 in 50 μl medium were placed in each well of Epic® 384-well microplate. After cell seeding, the cells were cultured at 37° C. under air/5% CO2 until a high degree, e.g. 90%, of confluence was reached (e.g., about 24 hrs). Cells were continuously cultured for over night with their corresponding media without any serum to keep cells at a quiescent state and cell confluence was over 95%.
Epic® system and DMR assays—An Epic® beta system was used during this study. For cell-cell interaction study, target cell density was at 95-100% confluence and the cells were finally maintained with the appropriate medium as described above. Cell number of NK92MI was counted with Beckman Coulter Particle Counter (Beckman Coulter, Fullerton, Calif.). Unless stated otherwise, a ratio of 1 between killer cells and target cells was used. NK92MI cells were suspended in RPMI plus 2% FBS. A 20-microliter solution of NK92MI was aliquoted to each well of a normal 384-well microplate (Corning Inc., Corning, N.Y.). The plates of the target-cell and the natural killer cell were incubated in the Epic® instrument for at least 30 minutes to reach 28° C. For pharmacological agent studies, the Icam1 cells had been pretreated with the agents for 1 hour before the NK cells were introduced. All studies were carried out at 28° C. with the lid of the microplate on except for a short period of time (e.g., about several seconds) when the solution was introduced, in order to minimize the effect of temperature fluctuation and evaporative cooling.

Sequence of RhoA (P61586 whole entry, species assumed): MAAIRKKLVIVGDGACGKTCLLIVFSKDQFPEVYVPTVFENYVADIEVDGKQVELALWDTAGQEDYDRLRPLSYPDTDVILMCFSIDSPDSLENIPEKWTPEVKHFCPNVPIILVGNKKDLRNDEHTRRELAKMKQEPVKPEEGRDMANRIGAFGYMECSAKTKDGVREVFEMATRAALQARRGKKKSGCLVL

Structure (SMILES)	effect on RhoA activation (RhoA)	effect on NK92-induced signals of D1 cells (D1 cells)	effect on NK92-induced N-DMR of CHO-ICAM1 cells (CHO-ICAM1 cells)
CCN(CC)CCCC(C)Nc1nc(C)cc(Nc2ccc3nc(C)cc(N)c3c2)n1 (racemic) [Rac1 inhibitor]	no effect	dose dependently increases	
C[C@H]1CCC/C=C/[C@@H]2C[C@H](O)C[C@H]2[C@H](O)/C=C/C(=O)O1 [BFA, Brefeldin A]		dose dependently increases	dose dependently increases
N#CC(=C(/N)Sc1ccccc1N)/C(C#N)=C(\N)Sc1ccccc1N [U0126]			dose-dependently suppressed
CC[C@@]1(O)C(=O)OCc2c1cc1n(c2=O)Cc2cc3ccccc3nc2-1 [camptothecin, Camptothecin]		dose dependently increases	dose dependently increases
COC(=O)CC[C@H](NC(=O)[C@H](CC(=O)OC)NC(=O)OCc1ccccc1)C(=O)N[C@H](C(=O)N[C@@H](CC(=O)OC)C(=O)CF)C(C)C [caspase 3 inhibitor]			little effect
C/C1=C/C(=O)O[C@@H]2C[C@@H](CC[C@H](C)/C=C\C=C\CC1)O[C@@](O)([C@@H]1CSC(=O)N1)C2 [latrunculin A]		dose dependently increases	
CC[C@]1(O)C[C@@H]2CN(CCc3c([nH]c4ccccc34)[C@@](C(=O)OC)(c3cc4c(cc3OC)N(C)[C@H]3[C@@](O)(C(=O)OC)[C@H](OC(C)=O)[C@]5(CC)C=CCN6CC[C@]43[C@@H]65)C2)C1 [vinblastine, Vinblastine]			dose dependently increases
